Format in all cases: cell-based, human
The subject of one data set is N-CoR2. Put plainly: Immunoblot of N-CoR2 protein abundance in 2D, 3D and reverted cultures. Particulars: T4-2 aggregates reverted into organized spheroids by EGFR inhibition, vs disorganized 3D aggregates. As for the experimental part: For immunoblot analysis, cell colonies (S1 acini or T4-2 cellular aggregates) in 3D rBM were isolated using ice-cold PBS/EDTA. Total cell lysates from monolayered cells or isolated colonies were prepared in Laemmli lysing buffer containing protease inhibitors and immunoblot analysis was performed as described (Exp. Cell Res. 298:122-132 (2004)).
For orientation: Immunoblotting shows a protein as a band on a membrane.

The test system of data set [1] is HMT3522 T4-2 cells. Put plainly: Phenotypic reversion in three dimensional rBM cultures. Particulars: tyrphostin AG 1478 100 nM. The source says: (§1) Non-neoplastic HMT3522 S1 breast epithelial cells or neoplastic HMT3522 T4-2 cells were embedded (8.5×10^5/ml) within reconstituted basement membrane (rBM) gel (Matrigcl, BD Biosciences) in chamber slides (Lab-Tek chamber slides, Nunc) according to the procedures described in U.S. Pat. No. 6,123,941 and Nat. Method. 4:359-365 (2007). The three dimensional cultures were maintained for 12 days before induction of cell death. Phenotypic reversion of HMT3522 T4-2 cells in three dimensional rBM cultures was performed using an epidermal growth factor receptor (EGFR) specific tyrosine kinase inhibitor tyrphostin AG 1478 (100 nM) (Calbiochem), as previously described (Proc. Natl. Acad. Sci. USA 95:14821-14826 (1998))

Data set [2] has as its system HMT3522 T4-2 cells. Nature of the data set: Percent cell death in 2D monolayer, 3D rBM and reverted cultures (active caspase 3). Particulars: for death sensitivity of cells cultured in 3D rBM: 3D rBM disorganized aggregates vs 2D monolayer; for death sensitivity of cells cultured in 3D rBM / death sensitivity of structurally reverted spheroids: TRAIL 1.0 μg/mL, Paclitaxel 20 μM; for death sensitivity of structurally reverted spheroids: reverted with tyrphostin AG 1478 in 3D rBM.
From the text: (§2) The oligonucleotides specifying the small hairpin RNAs (shRNAs) were subcloned from pSilencer-H1 into pLZRS-MFG-CMV-Neo-U6, a recombinant self-inactivating retroviral vector constructed from the backbone of an MFG provirus (Proc. Natl. Acad. Sci. USA 85:6460-6464 (1988); Proc. Natl. Acad. Sci. USA 90:3539-3543 (1993)), which directs the expression of shRNA under the control of the U6 promoter. Amphotropic retrovirus was produced in Phoenix ampho cells (provided by Professor G. Nolan, Stanford Medical Center) with packaging vectors pCgp and pVSVG to boost viral titer. S1 cells or T4-2 cells, maintained in monolayer cultures, were then spin infected with retrovirus carrying the various RNAi constructs and infected cell populations were selected using 300 μg/ml G418 (Invitrogen).
as §1, with “The three dimensional cultures were maintained for 12 days before induction of cell death.” left out
Apoptotic cell death of the breast epithelial cells cultured in three dimensional rBM was initiated by treatment with recombinant, purified human tumor necrosis factor-related apoptosis-inducing ligand (TRAIL) peptides (BIOMOL) or Paclitaxel (Sigma-Aldrich) as described (Cancer Cell 2:205-216 (2002)). DNA damage-induced cell death was initiated by ionizing radiation (IR) using a Mark I Cesium 137 irradiator (JL Shepherd & Associates).
Percent cell death induced by TRAIL or Paclitaxel was quantified using detection of active caspase 3 (Cell Signaling) by indirect immunofluorescence as described (J. Cell Biol. 163:1397-1407 (2003)). Percent cell death induced by IR was quantified using Live/Dead Viability/Cytotoxicity Assay (Molecular Probes). For both methods, cells were counterstained with 4′,6-diamidino-2-phenylindole (DAPI) to label cell nuclei present at different focal planes in the 3D architectures. Percent death was calculated as cells positive for ethidium bromide or active caspase 3 expressed as a percentage of the total number of cells scored by the nuclear staining.
Percent cell death induced by TRAIL was quantified using detection of active caspasc 3 as described in Example 4.

For data set [3], the system named is HMT3522 S1 cells. Nature of the data set: Cell growth rates on culture plastics and 3D acinar morphogenesis in rBM. Particulars: stable RNAi vs control shRNA. On the procedure: For the comparison of cell growth rates, cells were seeded on culture plastics and the cell number was determined at indicated time points. Population doublings were calculated as In (cell number at day n/cell number at day 0)/ln 2. Data were shown as mean±SEM of triplicate experiments.
To illustrate the basal surfaces and the intercellular junctions of the polarized acinar structures, the cultures were directly fixed with 2% paraformaldehyde and then incubated with primary antibodies toward β4-integrin and β-catenin, followed by FITC-(green) or Texas red-(red) conjugated secondary antibodies, respectively. Phase contrast images or immunofluorescence images were taken using a scanning confocal laser (model 2000-MP, Bio-Rad Laboratories) attached to a fluorescence microscope (model Eclipse TE-300, Nikon).

The subject of data set [4] is HMT3522 S1 cells. Put plainly: Percent cell death of 3D rBM acini (active caspase 3; Live/Dead assay for IR). Particulars: stable N-CoR2 downregulation vs control cells, range of drug concentrations or IR doses.
From the text: as §2, with “(Invitrogen). […]” for “(Invitrogen).”
Percent cell death induced by TRAIL or Paclitaxel was quantified using detection of active caspase 3 (Cell Signaling) by indirect immunofluorescence as described (J. Cell Biol. 163:1397-1407 (2003)). Percent cell death induced by IR was quantified using Live/Dead Viability/Cytotoxicity Assay (Molecular Probes). […] Percent death was calculated as cells positive for ethidium bromide or active caspase 3 expressed as a percentage of the total number of cells scored by the nuclear staining.

“Also recorded” adds a separate entry of the source.

Take `COc1cc2ncnc(Nc3cccc(Cl)c3)c2cc1OC` [tyrphostin AG 1478]: the “protein abundance of N-CoR2” value in the data set with N-CoR2 was “further increase in the protein abundance of N-CoR2”. Also, in the data set on HMT3522 T4-2 cells [1], the “phenotypic reversion of cellular aggregates in 3D rBM” value is on record as “phenotypic reversion of the cellular aggregates into organized spheroid-like structures”.
On to “N-CoR2 shRNA: retrovirally expressed small hairpin RNA, siRNA sequence 5′-AAGGGTATCATCACCGCTGTG-3′ (SEQ ID NO:1) for N-CoR2”, for which, in the data set on HMT3522 T4-2 cells [2] (stable N-CoR2 downregulation, TRAIL 1.0 μg/mL or Paclitaxel 20 μM), the “increased resistance of reverted spheroidal structures to death stimuli (TRAIL, Paclitaxel)” value is given as “completely reversed”. Also, the “growth on culture plastics, integrity and polarization of acini in 3D rBM” value with HMT3522 S1 cells [3] is reported as “does not significantly alter”. Also, the “sensitivity of S1 acini to death stimuli (TRAIL, Paclitaxel, IR)” value with HMT3522 S1 cells [4] is “much more sensitive”.
Turning to `CC(=O)O[C@H]1C(=O)[C@@]2(C)[C@H]([C@H](OC(=O)c3ccccc3)[C@]3(O)C[C@H](OC(=O)[C@H](O)[C@@H](NC(=O)c4ccccc4)c4ccccc4)C(C)=C1C3(C)C)[C@]1(OC(C)=O)CO[C@@H]1C[C@@H]2O` [Paclitaxel, reference compound], in the data set with HMT3522 T4-2 cells [2], the “death sensitivity of cells cultured in 3D rBM” value is listed as “decreased sensitivity” and the “death sensitivity of structurally reverted spheroids” value was “further decrease in the sensitivity”.

B1: TRAIL: recombinant, purified human tumor necrosis factor-related apoptosis-inducing ligand (TRAIL) peptides (BIOMOL) (protein, UniProt P50591 1-281, looked up)
Tumor necrosis factor ligand …: MAMMEVQGGPSLGQTCVLIVIFTVLLQSLCVAVTYVYFTNELKQMQDKYSKSGIACFLKEDDSYWDPNDEESMNSPCWQVKWQLRQLVRKMILRTSEETISTVQEKQQNISPLVRERGPQRVAAHITGTRGRSNTLSSPNSKNEKALGRKINSWESSRSGHSFLSNLHLRNGELVIHEKGFYYIYSQTYFRFQEEIKENTKNDKQMVQYIYKYTSYPDPILLMKSARNSCWSKDAEYGLYSIYQGGIFELKENDRIFVSVTNEHLIDMDHEASFFGAFLVG
Take B1: in the data set on HMT3522 T4-2 cells [2], the “death sensitivity of cells cultured in 3D rBM” value is “decreased sensitivity” and the “death sensitivity of structurally reverted spheroids” value is on record as “further decrease in the sensitivity”. The “death sensitivity of cells with stable overexpression of wild-type N-CoR2” value with HMT3522 T4-2 cells [2] (vs vector control cells, 3D rBM) is given as “markedly resistant; also recorded: less sensitive”.

These data come from US8257928B2, “Methods for predicting and treating tumors resistant to drug, immunotherapy and radiation” (The Regents of the University of California, priority 2008, dated 2012).
